US11434534B2, “Optimizing therapeutic options in personalized medicine” (CureMatch, Inc., priority 2016, dated 2022)

Assays:
[1] = system: metastatic basal cell cancer; conditions: for response to earlier therapy: brain, bone and liver metastases, therapies before nivolumab
Description: The interaction of this ligand (PD-L1) with the programmed death receptor (PD-1), expressed on T and B cells, alters the function of these cells leading to inhibition of autoimmunity and anti-tumor immunity.
The patient was started on nivolumab (OPDIVO®, anti-PD-1 antibody).

[2] = Tolerability in type 2 diabetes patient (Example 6); assay type: in vivo, human
Description: A person over-weight man (Body Mass Index=37.5, clinical obesity class 2) with a 5-year history of type 2 diabetes consults a Diabetes Specialty Clinic in Paris (France) for recent weight gain, foot pain, and persistent nocturia. At the time of their initial appointment, the patient was taking simvastatin (ZOCOR®) for a hyperlipidemia and a “pancreatic elixir” in an attempt to improve their diabetes control. […] The laboratory tests performed the same day confirms the uncontrolled type 2 diabetes (evaluated by a level of glycosylated hemoglobin=8.3%-normal<7%), a normo-lipidemia, and an elevated urine micro-albumin level. The physician ordered a urine metabolite profiling. The post-analysis review of the results highlighted the upregulation of the IL-1 (interleukin 1), TNF (Tumor Necrosis Factor), and mTOR (Mammalian Target of Rapamycin) signaling pathways.
The association of IL-1 and TNF inhibitors together is not considered by the system, as it increases the risk of serious infections. […] All of these drugs are approved by the ANSM (French Agency for Medicines and Medical Products Security).

[3] = system: hepatocellular carcinoma (HCC) with CDKN2A and CTNNB1 mutations; assay: Clinical outcome of hepatocellular carcinoma patient (Example 1); assay type: in vivo, human; conditions: metastatic HCC after chemoembolization, before molecular profiling
Description: Six months later, the physician logs in to the system via the web-interface and completes the physician's feedback survey regarding the regimen prescribed to their patient and the outcome observed. […] The entry corresponding to this observation was created in the clinical outcome database and will then be used in order to optimize similar cases.

## N.N.[Cl][Pt][Cl] [cisplatin]
[1]
  response to earlier therapy: short-lived response

## COc1ccc(Cl)cc1C(=O)NCCc1ccc(S(=O)(=O)NC(=O)NC2CCCCC2)cc1 [glibenclamide]
[2]; human, in vivo
  adverse effects that led to stopping the drug: dizziness, sweating, and agitation

## CC(=O)O[C@H]1C(=O)[C@@]2(C)[C@H]([C@H](OC(=O)c3ccccc3)[C@]3(O)C[C@H](OC(=O)[C@H](O)[C@@H](NC(=O)c4ccccc4)c4ccccc4)C(C)=C1C3(C)C)[C@]1(OC(C)=O)CO[C@@H]1C[C@@H]2O [paclitaxel]
[1]
  response to earlier therapy: short-lived response

## CCC(C)(C)C(=O)O[C@H]1C[C@@H](C)C=C2C=C[C@H](C)[C@H](CC[C@@H]3C[C@@H](O)CC(=O)O3)[C@H]21 [simvastatin]
[2]; taken for hyperlipidemia
  tolerability: well-tolerated

## Cc1c(C(=O)Nc2ccc(N3C[C@@H](C)O[C@@H](C)C3)nc2)cccc1-c1ccc(OC(F)(F)F)cc1 [sonidegib]
[1]
  response to earlier therapy: non-responsive

## CNC(=O)c1cc(Oc2ccc(NC(=O)Nc3ccc(Cl)c(C(F)(F)F)c3)cc2)ccn1 [sorafenib]
[3]
  disease course under treatment: continued to progress

## CS(=O)(=O)c1ccc(C(=O)Nc2ccc(Cl)c(-c3ccccn3)c2)c(Cl)c1 [vismodegib]
[1]
  response to earlier therapy: non-responsive

## nivolumab: anti-PD-1 antibody
[1]; after two months, PD-L1 (CD274) amplification
  response on scans: remarkable partial remission
[1]; human, in vivo
  toxicity: no toxicity
